Measured values from patent US12139477B2, “Compounds, salts thereof and methods for treatment of diseases” (ACADIA PHARMACEUTICALS INC., priority 2017, dated 2024).

target: 5HT2A (Homo sapiens, UniProt P28223); assay: Receptor Selection and Amplification (R-SAT) functional assay; assay type: cell-based; set-up: expressed in transfected cells; host or cells: NIH3T3 cells, pSI mammalian expression vector; conditions: NIH3T3 cells; Ki from IC50 by Cheng and Prussoff; read-out: 5-HT2a (pKi) (R-SAT) (converted)
Sequence (P28223 whole entry): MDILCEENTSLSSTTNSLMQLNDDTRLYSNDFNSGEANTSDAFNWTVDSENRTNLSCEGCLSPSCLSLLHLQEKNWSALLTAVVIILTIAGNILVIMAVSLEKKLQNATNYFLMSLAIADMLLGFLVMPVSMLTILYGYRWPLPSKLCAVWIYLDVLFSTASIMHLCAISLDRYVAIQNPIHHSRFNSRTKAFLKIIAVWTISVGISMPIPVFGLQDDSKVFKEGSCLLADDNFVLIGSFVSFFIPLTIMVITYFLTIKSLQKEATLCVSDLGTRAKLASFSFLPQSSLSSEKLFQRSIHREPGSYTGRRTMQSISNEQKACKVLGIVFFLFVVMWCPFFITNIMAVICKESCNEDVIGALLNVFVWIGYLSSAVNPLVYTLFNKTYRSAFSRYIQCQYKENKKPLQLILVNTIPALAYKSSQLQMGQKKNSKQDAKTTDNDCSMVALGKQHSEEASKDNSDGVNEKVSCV
Source text: Receptor Selection and Amplification (R-SAT) Assays. […] The IC50 determined in the RSAT assay was converted into a Ki value using the method of Cheng and Prussoff, Biochem Pharmacol., 1973 Dec. 1; 22(23):3099-108. pKi is the negative of the log(Ki).

Ki [µM] | Compound
0.0251 | COc1ccc(CNC(=O)N(Cc2ccc(F)cc2)[C@H]2CCN(C)C[C@H]2F)c(OC)c1 (racemic) [Example 1, 1-[(2,4-dimethoxyphenyl)methyl]-3-[(3R,4S)-3-fluoro-1-methylpiperidin-4-yl]-3-[(4-fluorophenyl)methyl]urea; Trifluoroacetic Acid (1a) and 1-[(2,4-dimethoxyphenyl)methyl]-3-[(3S,4R)-3-fluoro-1-methylpiperidin-4-yl]-3-[(4-fluorophenyl)methyl]urea; Trifluoroacetic Acid (1b)]
0.1 | CN1CCC(N(Cc2ccc(F)cc2F)C(=O)NCc2ccc([C@H](O)CO)cc2)CC1 (racemic) [Example 94, 1-[(2,4-difluorophenyl)methyl]-3-({4-[(1R)-1,2-dihydroxyethyl]phenyl}methyl)-1-(1-methylpiperidin-4-yl)urea; Trifluoroacetic Acid and 1-[(2,4-difluorophenyl)methyl]-3-({4-[(1S)-1,2-dihydroxyethyl]phenyl}methyl)-1-(1-methylpiperidin-4-yl)urea; Trifluoroacetic Acid]
0.000398 | CN1CC[C@@H](N(Cc2ccc(F)cc2F)C(=O)NCc2ccc(OC3CC3)cc2)[C@@H](F)C1 (racemic) [Example 117, 1-[(4-cyclopropoxyphenyl)methyl]-3-[(2,4-difluorophenyl)methyl]-3-[(3S,4R)-3-fluoro-1-methylpiperidin-4-yl]urea and 1-[(4-cyclopropoxyphenyl)methyl]-3-[(2,4-difluorophenyl)methyl]-3-[(3R,4S)-3-fluoro-1-methylpiperidin-4-yl]urea]
3.16 | COc1ccc(CN(C(=O)NCc2ccc(OCC(C)C)cc2)C2CCN(C)CC2)c(OC)c1 [Example 2, 3-[(2,4-dimethoxyphenyl)methyl]-3-(1-methylpiperidin-4-yl)-1-{[4-(2-methylpropoxy)phenyl]methyl}urea]
0.0631 | CC(C)COc1ccc(CNC(=O)N(Cc2ccc(F)cc2OCc2ccccc2)C2CCN(C)CC2)cc1 [Example 13b, 1-{[2-(benzyloxy)-4-fluorophenyl]methyl}-1-(1-methylpiperidin-4-yl)-3-{[4-(2-methylpropoxy)phenyl]methyl}urea]
0.01 | CN1CCC(N(Cc2ccc(F)cc2F)C(=O)NCc2ccc3ncoc3c2)CC1 [Example 29]
0.0631 | CN1CCC(N(Cc2ccc(F)cc2F)C(=O)NCc2ccc3ocnc3c2)CC1 [Example 30]
0.00631 | CN1CCC(N(Cc2ccc(F)cc2F)C(=O)NCc2ccc3c(ccn3C)c2)CC1 [Example 31]
0.00794 | CN1CCC(N(Cc2ccc(F)cc2F)C(=O)NCc2ccc3c(c2)N(C)CCO3)CC1 [Example 32]
0.000794 | O=C(O)C(F)(F)F.[2H]C([2H])([2H])C(Oc1ccc(CNC(=O)N(Cc2ccc(F)cc2F)C2CCN(C)CC2)cc1)(C([2H])([2H])[2H])C([2H])([2H])[2H] [Example 46]
0.126 | C[C@H](c1ccc(F)cc1F)N(C(=O)NCc1ccc(OC2CC2)cc1)C1CCN(C)CC1 [Example 47]
0.1 | COc1ccc(CNC(=O)N(Cc2ccc(F)cc2F)C2CCN(C)CC2)cc1C#N [Example 48]
0.00631 | CN1CCC(N(Cc2ccc(F)cc2F)C(=O)NCc2ccc(F)cc2)CC1 [Example 49]
0.1 | COc1ccc(CNC(=O)N(Cc2ccc(F)cc2F)C2CCN(C)CC2)c(OC)c1 [Example 50]
0.0251 | COc1ccc(CNC(=O)N(Cc2ccc(F)cc2F)C2CCN(C)CC2)c(Cl)c1 [Example 51]
0.0251 | COc1ccc(CNC(=O)N(Cc2ccc(F)cc2F)C2CCN(C)CC2)c(C(F)(F)F)c1 [Example 53]
0.00794 | COc1c(F)ccc(CNC(=O)N(Cc2ccc(F)cc2F)C2CCN(C)CC2)c1F [Example 54]
0.158 | CN1CCC(N(Cc2ccc(F)cc2F)C(=O)NCc2cccc3c2CC(C)(C)O3)CC1 [Example 58]
0.0158 | CN1CCC(N(Cc2ccc(F)cc2F)C(=O)NCc2ccc3c(c2)OC(C)(C)C3)CC1 [Example 59]
0.0794 | CC(C)COc1ccc(CNC(=O)N(Cc2cc(F)ccc2F)C2CCN(C)CC2)cc1 [Example 63]
